# Source: US9365851B2, “Spalt-like transcription factor 4 (SALL4) and uses thereof” (National University of Singapore, priority 2011, dated 2016)
# “Also recorded” adds a separate entry of the source. Where two headings read alike, the source gives them in different places.
# Assays:
# primary human AML cells = assay: Viability / cell death of primary AML cells in culture (Annexin V/PI flow cytometry); format: cell-based; details: for cell death rate: 96 h after first treatment, Chariot (Example 1)
# Method: Whether a therapeutic effect could be achieved by using this wt peptide on primary AML samples was then tested. Ninety-six hours after the first treatment of peptides (wt, Mut, or Scr) or TSA in the primary AML cells collected from a patient, the remaining alive cells were measured by FACS analysis using Annexin V/PI staining. During the treatment the wt and control peptides (Mut or Scr) were re-introduced twice at the 24-hour and the 48-hour time points along with the Chariot (Active Motif) transfection agent. A significant effect of the wt peptide on the cell viability of primary AML cells was observed. While there was a 56% cell death rate with wt peptide treatment at the end of the fourth day, the cell death rate was only 35% in the non-treated or treated with the control peptide, and the cell death rate was 44% in cells treated with TSA (FIG. 5).
# Three frozen primary AML patient samples were used for this study, and were obtained from Brigham and Women's Hospital at Boston, Mass., USA, under approved IRB protocol (No. 2011-P-000096/1). Culture conditions were adapted from a published protocol 28-31. In brief, the frozen AML samples were incubated in RPMI1640 medium without serum for 1 to 3 h after thawing and DNA fragments from dead cells were removed by washing. After three washes with the medium, 1×10^6 cells per well of 12-well plate were maintained in 1 ml of serum-free medium (StemSpan-H3000, Catalogue #09800, StemCell Technologies) supplied with StemSpan CC 100 cytokine cocktail (Catalogue #02690, StemCell Technologies) that supports 40-50% viability at 72 hours postthaw culturing based on our experience. These cells were then used for the down-regulation of SALL4 (see details below) and peptide treatment experiments.
# SALL4 is critical for leukemic cell survival in the AML cell line NB4 (Yang, et al., Blood, 112:805-813 (2008)). Asked herein was whether this is also the case for primary human AML samples. Three SALL4/PTEN-expressing AML samples were selected for experiments in which cells were first tested under culture conditions that maintain/promote viability of AML cells 28-31. The SALL4-specific shRNA that has been validated in previous studies (Yang et al., PLoS One, 5:e10766 (2010); Yang, et al., Blood, 112:805-813 (2008); Yang et al., PNAS USA, 104:10494-10499 (2007)) was utilized in these AML patient samples (FIG. 11A). 48 hours after transduction, the viability of cells was determined by flow cytometry after staining with Annexin V and propidium iodide (PI). Live cells are Annexin V negative and PI negative, the double negative population. […] Furthermore, in a xenotransplant model, increased survival of leukemic cell recipient NOD/SCID/IL2rγ-null (NSG) mice following knocking down SALL4 expression in the primary AML samples was observed (FIG. 11C). Fatal AML with onset ranging from one to three months developed in all recipients receiving AML cells transduced with a scrambled control shRNA (n=7), while only 2 out of 6 mice receiving SALL4 shRNA-treated primary AML developed leukemia. While the median survival of scrambled shRNA control recipient mice (n=7) was 33 days, the median survival of SALL4 shRNA recipient mice (n=6) was 109 days (P=0.01). The transplanted leukemia disease was characterized by immature blasts with human CD45 expression in peripheral blood, bone marrow, and tissues such as liver and spleen (FIG. 11D to 11F).
# Next tested was whether a therapeutic effect could be achieved by using the wild type peptide in primary human AML samples. The same SALL4/PTEN expressing primary AML samples were selected for experiments under the same culture conditions as mentioned above. Leukemic cells were subjected to three treatment regimes: peptide (wild type or scrambled), peptide plus PTEN inhibitor, or HDAC inhibitor (TSA). To assist peptide delivery into cells, a carrier agent, Pep-1 was used for all the experiments, and control treated cells were given pep-1 alone (mock). […]
# PTEN/AKT pathway = PTEN/AKT pathway expression in SNU-398 cells after treatment (Western blot, mRNA); format: cell-based, human; details: for PTEN protein expression / phosphorylated AKT (pAKT) level: SNU-398, Western blot
# Text: The induction of Pten expression was not affected when wt peptide was administrated together with a Pten inhibitor. AKT, a molecule with levels of phosphorylation controlled by the expression of Pten was affected by the wt peptide addition accordingly. […] The effect of wt peptide on pAKT was abrogated by the Pten inhibitor. […] In contrast, the protein expression level of endogenous Pten was very high in the none-SALL4 expressing SNU387 cells.
# Then tested was whether this peptide could reverse the repressive effect of SALL4 on its target genes. The focus was onPTEN, since it is implicated in SALL4-mediated leukemogenesis (Yang et al., Blood, 112:805-813 (2008); Lu et al., PLoS One, 4:e5577 (2009)). In addition, it was previously reported that SALL4 could specifically bind to the PTEN promoter region in a chromatin immunoprecipitation (ChIP) assay (Lu et al., PLoS One, 4:e5577 (2009)). When SALL4 was overexpressed in 293T cells, an enrichment of SALL4 as well as decreased H3 acetylation at this binding site was observed, which correlated with decreased PTEN RNA expression (Lu et al., PLoS One, 4:e5577 (2009))). Therefore, it was hypothesized that SALL4 could recruit the HDAC/NuRD complex to repress PTEN, and that the wild type peptide would compete with endogenous SALL4 in recruiting the HDAC/NuRD complex to the PTEN promoter, and release the repression effect of SALL4 on PTEN. Furthermore, this model would predict that wild type peptide treatment of SALL4-expressing cells would lead to increased epigenetic markers of gene activation, such as H3 acetylation, at the PTEN promoter binding site, as well as an increase in PTEN expression. To test this possibility, SNU-398 cells were treated with scrambled or wild type peptide and subsequently evaluated for PTEN expression and H3 acetylation at the SALL4 binding site at the PTEN promoter region. […] Therefore, the results herein are compatible with the model that SALL4 recruits HDACs to repress PTEN expression, and blocking the SALL4-HDAC interaction with the wild type peptide results in increased expression of PTEN.
# To confirm the involvement of PTEN tumor suppressor in SALL4 peptide-induced reduction of number of viable HCC cells, PTEN expression was analyzed by western blot upon drug treatment. […] Whether the increase in PTEN expression upon SALL4 peptide treatment has an effect in PI3K signalling by dephosphorylating AKT was examined.
# To confirm the involvement of the PTEN tumor suppressor in the SALL4 peptide-induced reduction of HCC cell viability, PTEN expression was analyzed by western blot upon drug treatment. […] If the increase in PTEN expression has an effect in PI3K signaling was next examined. PTEN functions as a phosphatase to dephosphorylate AKT.
compound,measurement,setting,value
"CC(/C=C/C(=O)NO)=C\[C@@H](C)C(=O)c1ccc(N(C)C)cc1 [TSA, Trichostatin A, reference compound]",cell death rate,"primary human AML cells; primary AML, Annexin V/PI",44%
same,cell viability,"primary human AML cells; primary AML, fourth day, Pep-1 carrier, untreated set as 100 (Example 2)",54.7%
same,PTEN protein expression,PTEN/AKT pathway,also induced PTEN expression; also recorded: also induced PTEN upregulation
same,phosphorylated AKT (pAKT) level,PTEN/AKT pathway,significantly reduced
same,PTEN protein expression,PTEN/AKT pathway; listed as Trichostatin A,levels of PTEN were elevated
"GATGCCTTGAAACAAGCCAAGCTACCTCA (chemistry not given here) [compound 7412, SALL4 shRNA used in primary AML cells]",viability after SALL4 knock-down,primary human AML cells,80.9%
same,increase in cell apoptosis and cell death,"primary human AML cells; primary AML, Annexin V/PI, after SALL4 knock-down",2 fold
"H-MSRRKQAKPQHI-OH [wt peptide, MSRRKQAKPQHI]",cell viability,"primary human AML cells; human, 96 h",55.3%
same,cell death rate,"primary human AML cells; primary AML, Annexin V/PI",56%
same,Pten mRNA expression,PTEN/AKT pathway; SNU-398,increased Pten mRNA expression level
same,elevation of PTEN expression level,"PTEN/AKT pathway; SNU-398, 24 h, relative to alfa-tubulin",More than 2 times
same,PTEN protein expression,PTEN/AKT pathway,noticeably higher
same,PTEN protein expression,PTEN/AKT pathway; listed as SALL4 peptide,extensive increase in PTEN protein
same,phosphorylated AKT (pAKT) level,PTEN/AKT pathway; listed as SALL4 peptide,significant reduction of pAKT level; also recorded: marked reduction of phospho AKT protein levels
same,PTEN protein expression,PTEN/AKT pathway; listed as SALL4 peptide (wt),extensive increased in PTEN expression
same,PTEN protein expression,PTEN/AKT pathway; listed as Wild type peptide,increased PTEN protein
same,PTEN protein expression,PTEN/AKT pathway; listed as wild type peptide,increased PTEN expression
same,phosphorylated AKT (pAKT) level,PTEN/AKT pathway; listed as wt,significantly reduced
"Scr peptide: same 12 amino acids as the wt peptide, but in a scrambled sequence; negative control (SRMRQKIHPKIQ) [reference compound]",cell viability,primary human AML cells,over 97%
same,cell death rate,"primary human AML cells; primary AML, Annexin V/PI",the same value as the untreated
same,PTEN protein expression,PTEN/AKT pathway,an effect not observed
same,phosphorylated AKT (pAKT) level,PTEN/AKT pathway,No effect
same,PTEN protein expression,PTEN/AKT pathway; listed as scrambled (mutant) peptide,does not exhibit the same properties
same,PTEN protein expression,PTEN/AKT pathway; listed as scrambled peptide,not observed
